Drawing on patent US8883789B2, “Piperazine derivatives and their use as positive allosteric modulators of mGluR5 receptors” (Boehringer Ingelheim International GmbH, priority 2011, dated 2014), this text covers EC50 for 47 compounds.

Structures are written as SMILES. pEC50: −log10 of the molar value.

T1 sequence (P41594 21-1212): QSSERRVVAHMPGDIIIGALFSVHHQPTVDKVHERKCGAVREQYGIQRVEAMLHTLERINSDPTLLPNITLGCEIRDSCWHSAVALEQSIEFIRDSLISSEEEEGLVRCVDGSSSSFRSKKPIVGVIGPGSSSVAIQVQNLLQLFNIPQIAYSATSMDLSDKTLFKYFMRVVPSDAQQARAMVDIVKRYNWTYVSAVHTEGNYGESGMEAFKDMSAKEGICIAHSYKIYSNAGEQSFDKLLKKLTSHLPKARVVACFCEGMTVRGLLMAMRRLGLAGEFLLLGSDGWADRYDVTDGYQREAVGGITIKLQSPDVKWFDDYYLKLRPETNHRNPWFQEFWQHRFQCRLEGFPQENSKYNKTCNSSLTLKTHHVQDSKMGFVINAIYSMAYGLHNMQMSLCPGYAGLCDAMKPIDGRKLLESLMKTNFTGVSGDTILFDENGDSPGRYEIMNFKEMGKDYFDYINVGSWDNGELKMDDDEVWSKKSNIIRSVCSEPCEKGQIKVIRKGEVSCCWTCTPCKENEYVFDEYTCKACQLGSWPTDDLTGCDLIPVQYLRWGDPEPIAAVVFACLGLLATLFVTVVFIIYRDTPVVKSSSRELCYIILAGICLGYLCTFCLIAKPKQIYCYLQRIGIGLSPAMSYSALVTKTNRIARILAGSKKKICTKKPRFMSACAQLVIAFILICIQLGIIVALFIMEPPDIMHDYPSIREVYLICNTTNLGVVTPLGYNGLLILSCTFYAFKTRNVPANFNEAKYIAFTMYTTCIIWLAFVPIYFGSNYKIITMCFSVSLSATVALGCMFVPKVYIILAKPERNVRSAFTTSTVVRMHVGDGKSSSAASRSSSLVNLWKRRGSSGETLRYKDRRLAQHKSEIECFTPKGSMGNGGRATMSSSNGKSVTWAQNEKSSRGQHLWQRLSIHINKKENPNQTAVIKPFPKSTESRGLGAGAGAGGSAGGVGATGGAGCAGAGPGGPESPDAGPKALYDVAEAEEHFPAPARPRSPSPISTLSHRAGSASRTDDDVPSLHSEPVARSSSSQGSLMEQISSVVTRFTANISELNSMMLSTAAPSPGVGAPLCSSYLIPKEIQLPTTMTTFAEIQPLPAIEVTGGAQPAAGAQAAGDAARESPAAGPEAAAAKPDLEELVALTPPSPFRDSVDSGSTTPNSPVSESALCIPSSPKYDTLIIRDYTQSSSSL

The test concerns the target T1, human recombinant mGluR5 (Homo sapiens, UniProt P41594).
T1 construct: expressed in transfected cells; hygromycin and geneticin selection
Put plainly: positive modulation of mGluR5, calcium based FLIPR assay. To be noted: HEK 293 cell line expressing human recombinant mGluR5; Ca2+ peak height after glutamate at approximately 5% basal stimulation; nonlinear regression. The method, then:
The positive modulation of mGluR5 is measured in a HEK 293 cell line expressing human recombinant mGluR5 and is detected with calcium based FLIPR assay. The cells are cultured with DMEM supplemented with 10% FCS, 2 μg/mL tetracycline, 100 μg/mL hygromycin and 500 μg/mL geneticin. The cell culture media is exchanged for tetracycline-free cell culture media 3-7 days before the assay. One day before the assay the cell culture medium is exchanged to DMEM without glutamine and phenol red and supplemented with 10% FCS, 100 μg/mL hygromycin and 500 μg/mL geneticin. On the assay day, the medium of the subconfluent cultures is removed and the cells are detached by addition of 2.5 ml EDTA (0.02%) per 175 cm2 culture flask for 1 minute. The cells are resuspend in Ringer solution (140 mM NaCl, 5 mM KCl, 2.5 mM CaCl2, 1.5 mM MgCl2, 5 mM Glucose, 10 mM Hepes; adjusted to pH 7.4 with NaOH), pooled and Ringer solution added to adjust the volume to 50 mL. The cell suspension is centrifuged for […] at 1500 U/min (425 g). The supernatant is removed and the cells washed a second time with 50 ml fresh Ringer solution and centrifuged again as before. The supernatant is again removed and the pellet resuspended in Ringer solution to 1,000,000 cells/ml (1×10^6 cells/mL). The cells are plated onto BD BioCoat Poly-D-Lysine 384 well plates (20.000 cells/well; 20 μl/well). The lid covered plates are then incubated until use at 37° C./10% CO2. For dye loading, 20 μl of Calcium-4 assay kit solution (prepared according to the manufacturer's description in Ringer solution) are added to the cells and the plates are incubated for 80 min 37° C. and then 10 min at room temperature.
Controls, Compound Dilution and Assay Execution:
Each assay plate contained wells with “high” and “low” controls:
Low controls 1% DMSO/ringer solution+basal glutamate activation (defined as 100% CTL).
High controls 10 μM CDPPB+basal glutamate activation (defined as 200% CTL).
Test compounds are dissolved and diluted in DMSO to 100-fold the desired concentrations. In a second step, the compounds are diluted in Ringer solution such that the compounds are 4-fold more concentrated than the desired final assay concentration. The final DMSO concentration was 1%.
20 μl of each compound solution are then transferred to the assay plate and the Ca2+ kinetic is measured to determine any intrinsic compound activity. After 5 min incubation in the FLIPR device, the second stimulation with 20 μl of glutamate in Ringer solution (glutamate concentration adjusted to approximately 5% basal stimulation of the maximal possible glutamate effect) is added and the kinetic Ca2+ response of the wells was measured for the modulation effect.
The peak height of the Ca release related fluorescence signal (9-66) is used for the EC50.
The EC50 of the modulation is calculated over a nonlinear regression with GraphPad Prism (Table 1).
One may read the pEC50 as the EC50 on a negative log10 scale, so that one unit is a factor of ten. For the compound `CC1(C)CN(C(=O)c2ccnc(C(F)(F)F)n2)CCN1C(=O)c1ncn(-c2ccccc2)n1` [Example 143], the pEC50 was 6.23.

`CC(C)c1cccc(C(=O)N2CCN(C(=O)c3nnn(-c4ccccc4)n3)C(C)(C)C2)c1` [Example 167]: the pEC50 was 7.82.

With `Cc1ccc2oc(C(=O)N3CCN(C(=O)c4ncn(-c5cccc(Cl)c5)n4)C(C)(C)C3)c(C)c2c1` [Example 50], the negative logarithm of the EC50 (pEC50) is 6.53.

With `COc1cccc(C(=O)N2CCN(C(=O)c3ncn(-c4cccc(F)c4)n3)C(C)C2)n1` (centres unmarked) [Example 297], the negative logarithm of the EC50 (pEC50) was 6.39.

Consider `COc1cccc(C(=O)N2CCN(C(=O)c3ncn(-c4cccc(F)c4)n3)C3(CCC3)C2)n1` [Example 307], for which the pEC50 was 6.12.

Take `CC1(C)CN(C(=O)c2cncc(C(F)(F)F)n2)CCN1C(=O)c1ncn(-c2cccc(Cl)c2)n1` [Example 49]: the pEC50 is 6.65.

In the case of `CC1CN(C(=O)c2ncn(-c3cccc(Cl)c3)n2)CCN1C(=O)c1cc2c(Cl)cccc2s1` (centres unmarked) [Example 223], the pEC50 was 6.48.

With `CC1(C)CN(C(=O)c2cccc(Br)c2)CCN1C(=O)c1ncn(-c2cccc(Cl)c2)n1` [Example 15], the pEC50 is 7.52.

With `CC1(C)CN(C(=O)c2cccc(C3CC3)c2)CCN1C(=O)c1ncn(-c2ccccc2)n1` [Example 136], the pEC50 was 7.28.

Turning to `CC1CN(C(=O)c2cccc3c2OCO3)CCN1C(=O)c1ncn(-c2cccc(Cl)c2)n1` (centres unmarked) [Example 286], the negative logarithm of the EC50 (pEC50) is 5.88.

In the case of `Cc1cccc(-n2cnc(C(=O)N3CCN(C(=O)c4c(C)oc5ccccc45)CC3(C)C)n2)c1` [Example 10], the negative-log EC50 (pEC50) was 7.02.

Regarding `CC1(C)CN(C(=O)c2cc(Cl)cc(Br)c2)CCN1C(=O)c1ncn(-c2ccccc2)n1` [Example 125], the negative logarithm of the EC50 (pEC50) was 7.08.

For `Cc1cc2cc(C(=O)N3CCN(C(=O)c4ncn(-c5ccccc5)n4)C(C)(C)C3)ccc2[nH]1` [Example 142], the negative-log EC50 (pEC50) is 6.91.

In the case of `CC1(C)CN(C(=O)c2cccc(C#N)n2)CCN1C(=O)c1ncn(-c2cccc(Cl)c2)n1` [Example 33], the pEC50 was 6.69.

With `Cc1cccc(C(=O)N2CCN(C(=O)c3ncn(-c4cccc(Cl)c4)n3)C(C)(C)C2)n1` [Example 39], the negative logarithm of the EC50 (pEC50) was 6.38.

For the compound `COc1cccc(-c2cccc(C(=O)N3CCN(C(=O)c4ncn(-c5cccc(Cl)c5)n4)C(C)(C)C3)c2)c1` [Example 69], the pEC50 is 7.28.

For `CC1(C)CN(C(=O)c2cccc(OC(F)(F)F)c2)CCN1C(=O)c1ncn(-c2cccc(Cl)c2)n1` [Example 37], the pEC50 was 6.41.

`Cc1cccc(-n2cnc(C(=O)N3CCN(C(=O)c4cccc(Cl)c4)CC3(C)C)n2)c1` [Example 188]: the negative logarithm of the EC50 (pEC50) is 7.48.

As for `CC1(C)CN(C(=O)c2cc3ccccc3c(OC3CCCC3)n2)CCN1C(=O)c1ncn(-c2ccccc2)n1` [Example 115], the negative-log EC50 (pEC50) is 6.80.

With `COc1cccc(C(=O)N2CCN(C(=O)c3ncn(-c4cccc(F)c4)n3)C(C)(C)C2)n1` [Example 4], the negative-log EC50 (pEC50) is 7.00.

For `Cc1c(C(=O)N2CCN(C(=O)c3ncn(-c4cccc(Cl)c4)n3)C(C)(C)C2)oc2c(F)cccc12` [Example 53], the negative logarithm of the EC50 (pEC50) is 7.11.

As to `CC1(C)CN(C(=O)c2cccc(C3CC3)n2)CCN1C(=O)c1nnn(-c2cccc(Cl)c2)n1` [Example 182], the pEC50 was 7.55.

As for `COc1cccc(C(=O)N2CCN(C(=O)c3nnn(-c4ccc(F)cc4)n3)C(C)(C)C2)n1` [Example 200], the pEC50 was 6.88.

For `CC1(C)CN(C(=O)c2cccc(Cl)c2)CCN1C(=O)c1ncn(-c2ccccc2F)n1` [Example 194], the pEC50 was 6.31.

In the case of `COc1cc(C(=O)N2CCN(C(=O)c3ncn(-c4cccc(Cl)c4)n3)C(C)(C)C2)ccc1C` [Example 46], the pEC50 was 7.06.

On to `CC1(C)CN(C(=O)c2cccc(-c3cccc(C#N)c3)c2)CCN1C(=O)c1ncn(-c2cccc(Cl)c2)n1` [Example 55], for which the pEC50 is 7.19.

With `Cc1cccc(-n2cnc(C(=O)N3CCN(C(=O)c4cc(Cl)c5c(c4)OCCO5)CC3C)n2)c1` (centres unmarked) [Example 289], the pEC50 was 6.31.

Regarding `Cc1cc(-n2cnc(C(=O)N3CCN(C(=O)c4cc(Cl)c5c(c4)OCCO5)CC3(C)C)n2)ccc1F` [Example 162], the pEC50 is 6.32.

As to `COc1ccc2c(C)c(C(=O)N3CCN(C(=O)c4ncn(-c5cccc(Cl)c5)n4)C(C)C3)oc2c1` (centres unmarked) [Example 278], the pEC50 is 6.03.

On to `CC1(C)CN(C(=O)c2cc(Cl)ccc2F)CCN1C(=O)c1ncn(-c2ccccc2)n1` [Example 155], for which the pEC50 was 6.87.

`CC1(C)CN(C(=O)c2nccc(C(F)(F)F)n2)CCN1C(=O)c1ncn(-c2ccccc2)n1` [Example 147]: the negative-log EC50 (pEC50) is 6.21.

Turning to `CC1(C)CN(C(=O)c2nccc(C(F)(F)F)n2)CCN1C(=O)c1ncn(-c2cccc(Cl)c2)n1` [Example 84], the pEC50 was 6.97.

As for `COc1cccc(C(=O)N2CCN(C(=O)c3ncn(-c4ccccc4)n3)C(C)C2)n1` (centres unmarked) [Example 298], the pEC50 was 6.21.

Take `CC1(C)CN(C(=O)c2cc3ccccc3cn2)CCN1C(=O)c1ncn(-c2cccc(Cl)c2)n1` [Example 35]: the pEC50 was 6.46.

As to `CC1(C)CN(C(=O)c2cccc(S(C)(=O)=O)c2)CCN1C(=O)c1ncn(-c2ccccc2)n1` [Example 131], the pEC50 is 5.73.

Consider `Cn1ccc2cc(C(=O)N3CCN(C(=O)c4ncn(-c5cccc(Cl)c5)n4)C(C)(C)C3)ccc21` [Example 82], for which the negative-log EC50 (pEC50) was 6.92.

`O=C(c1cc(Br)c(Br)o1)N1CCN(C(=O)c2ncn(-c3cccc(F)c3)n2)C2(CCC2)C1` [Example 306]: the pEC50 is 6.35.

On to `Cn1c(CC2CCCC2)nc2ccc(C(=O)N3CCN(C(=O)c4ncn(-c5ccccc5)n4)C(C)(C)C3)cc21` [Example 179, [4-(2-cyclopentylmethyl-3-methyl-3H-benzoimidazole-5-carbonyl)-2,2-dimethyl-piperazin-1-yl]-(1-phenyl-1H-[1,2,4]-triazol-3-yl)-methanone], for which the pEC50 was 6.82.

For the compound `Cc1oc2ccc(F)cc2c1C(=O)N1CCN(C(=O)c2ncn(-c3ccccc3)n2)C(C)(C)C1` [Example 102], the pEC50 is 7.31.

Turning to `COc1cccc(C(=O)N2CCN(C(=O)c3ncn(-c4ccc(C)c(F)c4)n3)C(C)(C)C2)n1` [Example 159], the negative-log EC50 (pEC50) is 6.16.

In the case of `COc1cccc(C(=O)N2CCN(C(=O)c3ncn(-c4cccc(C)c4)n3)C(C)C2)n1` (centres unmarked) [Example 296, [4-(6-Methoxy-pyridine-2-carbonyl)-2-methyl-piperazin-1-yl]-(1-m-tolyl-1H-[1,2,4]-triazol-3-yl)-methanone], the pEC50 is 6.57.

For the compound `CC1(C)CN(C(=O)c2cnc3[nH]ccc3c2)CCN1C(=O)c1ncn(-c2cccc(Cl)c2)n1` [Example 59], the pEC50 was 5.97.

In the case of `COc1ccc(C(=O)N2CCN(C(=O)c3ncn(-c4cccc(Cl)c4)n3)C(C)(C)C2)s1` [Example 76], the pEC50 was 6.63.

Regarding `CC1CN(C(=O)c2ncn(-c3cccc(Cl)c3)n2)CCN1C(=O)c1cn(C)c2ccccc12` (centres unmarked) [Example 230], the pEC50 is 6.24.

As for `CC1(C)CN(C(=O)c2cc(Br)c(Br)o2)CCN1C(=O)c1ncn(-c2cccc(Cl)c2)n1` [Example 25], the pEC50 was 7.21.

On to `Cc1oc2ccccc2c1C(=O)N1CCN(C(=O)c2ncn(-c3ccccc3)n2)C(C)C1` (centres unmarked) [Example 295], for which the pEC50 was 7.02.

For the compound `Cc1c(C(=O)N2CCN(C(=O)c3ncn(-c4cccc(Cl)c4)n3)C[C@@H]2C)oc2ccc(F)cc12` [Example 253], the pEC50 is 6.47.
